Measurements as given in PubChem BioAssay AID248 (DTP/NCI, 2004).
Where “and” joins values, the source holds several entries; their conditions need not be identical. Equal values may be shown once. Toxic doses and inconclusive results are not listed. No stated cut-off is given here; in the data, active means T/C of 150% or more; inactive means T/C below 125%.

Tested on: L1210 leukemia ip in BDF1 mice, survival T/C
Test: NCI In Vivo Anticancer Drug Screen. Data for tumor model L1210 Leukemia (intraperitoneal) in B6D2F1 (BDF1) mice
Conditions: endpoint: mean survival time, higher = longer survival
How it was run: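 Mice bearing the transplanted tumor received compound or vehicle. Survival of the treated group was divided by that of the vehicle-treated control group to give the ratio.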

[1] = dose: 100.0 mg/kg/injection, schedule: Q01DX001 (ip), vehicle: saline
[2] = dose: 200.0 mg/kg/injection, schedule: Q01DX001 (ip), vehicle: saline
[3] = dose: 400.0 mg/kg/injection, schedule: Q01DX001 (ip), vehicle: saline
[4] = dose: 100.0 mg/kg/injection, schedule: Q01DX009 (ip), vehicle: saline
[5] = dose: 200.0 mg/kg/injection, schedule: Q01DX009 (ip), vehicle: saline
[6] = dose: 100.0 mg/kg/injection, schedule: Q04DX003 (ip), vehicle: Klucel (hydroxypropylcellulose) (HPC)
[7] = dose: 50.0 mg/kg/injection, schedule: Q01DX001 (ip), vehicle: saline
[8] = dose: 100.0 mg/kg/injection, schedule: Q01DX009 (ip), vehicle: Klucel (hydroxypropylcellulose) (HPC)
[9] = dose: 200.0 mg/kg/injection, schedule: Q01DX009 (ip), vehicle: Klucel (hydroxypropylcellulose) (HPC)
[10] = dose: 400.0 mg/kg/injection, schedule: Q01DX009 (ip), vehicle: Klucel (hydroxypropylcellulose) (HPC)
[11] = dose: 100.0 mg/kg/injection, schedule: Q04DX003 (ip), vehicle: saline with Tween-80
[12] = dose: 200.0 mg/kg/injection, schedule: Q04DX003 (ip), vehicle: saline with Tween-80
[13] = dose: 400.0 mg/kg/injection, schedule: Q04DX003 (ip), vehicle: saline with Tween-80
[14] = dose: 15.0 mg/kg/injection, schedule: Q01DX Z (ip), vehicle: saline
[15] = dose: 30.0 mg/kg/injection, schedule: Q01DX Z (ip), vehicle: saline
[16] = dose: 60.0 mg/kg/injection, schedule: Q01DX Z (ip), vehicle: saline
[17] = dose: 120.0 mg/kg/injection, schedule: Q01DX Z (ip), vehicle: saline
[18] = dose: 240.0 mg/kg/injection, schedule: Q01DX Z (ip), vehicle: saline
[19] = dose: 480.0 mg/kg/injection, schedule: Q01DX Z (ip), vehicle: saline

Measured: T/C

ClCc1ccccc1CCl
inactive: dose: 5.0 mg/kg/injection, schedule: Q01DX015 (ip), vehicle: carboxymethylcellulose (CMC) 90 % of control | dose: 10.0 mg/kg/injection, schedule: Q01DX015 (ip), vehicle: carboxymethylcellulose (CMC) 87 % of control

CCOC(=O)/C(C#N)=C(\CCCCc1ccccc1)CC(C)C
inactive: dose: 100.0 mg/kg/injection, schedule: Q04DX002 (ip), vehicle: saline with Tween-80 101 % of control | dose: 200.0 mg/kg/injection, schedule: Q04DX002 (ip), vehicle: saline with Tween-80 92 % of control | dose: 400.0 mg/kg/injection, schedule: Q04DX002 (ip), vehicle: saline with Tween-80 104 % of control

CC1(C)OCC(C2OC(C)(C)OC2C(CO)Nc2ccc([N+](=O)[O-])cc2[N+](=O)[O-])O1 (stereo unspecified)
inactive: [1] 98 % of control | [2] 93 % of control | [3] 93 % of control

CCNc1cc(Cl)c(C(=O)O)cc1[N+](=O)[O-]
inactive: [4] 116 % of control | [5] 103 % of control | dose: 400.0 mg/kg/injection, schedule: Q01DX009 (ip), vehicle: saline 95 % of control

Cc1cc(N(CCOS(C)(=O)=O)CCOS(C)(=O)=O)ccc1C=Nc1cccc(Br)c1
inactive: dose: 20.0 mg/kg/injection, schedule: Q04DX003 (ip), vehicle: Klucel (hydroxypropylcellulose) (HPC) 110 % of control | dose: 40.0 mg/kg/injection, schedule: Q04DX003 (ip), vehicle: Klucel (hydroxypropylcellulose) (HPC) 121 % of control | dose: 80.0 mg/kg/injection, schedule: Q04DX003 (ip), vehicle: Klucel (hydroxypropylcellulose) (HPC) 98 % of control | [6] 120 % of control

CN(C)c1ccc(/C=C\C(=O)c2ccccc2)cc1
inactive: [7] 96 % of control | dose: 50.0 mg/kg/injection, schedule: Q01DX009 (ip), vehicle: saline 94 % of control | [1] 102 % of control | [8] 95 % of control | [4] 102 % of control | [6] 94 % of control | [2] 111 % of control | [9] 95 % of control | [5] 97 % of control | dose: 200.0 mg/kg/injection, schedule: Q04DX003 (ip), vehicle: Klucel (hydroxypropylcellulose) (HPC) 93 % of control | [3] 94 % of control | [10] 97 % of control | dose: 400.0 mg/kg/injection, schedule: Q04DX003 (ip), vehicle: Klucel (hydroxypropylcellulose) (HPC) 94 % of control

Cc1cc(C)c(N)c(Br)c1
inactive: dose: 25.0 mg/kg/injection, schedule: Q01DX009 (ip), vehicle: saline with Tween-80 88 % of control | dose: 25.0 mg/kg/injection, schedule: Q04DX003 (ip), vehicle: Klucel (hydroxypropylcellulose) (HPC) 95 % of control | dose: 50.0 mg/kg/injection, schedule: Q01DX009 (ip), vehicle: saline with Tween-80 87 % of control | dose: 50.0 mg/kg/injection, schedule: Q04DX003 (ip), vehicle: Klucel (hydroxypropylcellulose) (HPC) 97 % of control | dose: 100.0 mg/kg/injection, schedule: Q01DX001 (ip), vehicle: Klucel (hydroxypropylcellulose) (HPC) 95 % of control | [6] 93 % of control and 90 % of control | [11] 91 % of control | dose: 200.0 mg/kg/injection, schedule: Q01DX001 (ip), vehicle: Klucel (hydroxypropylcellulose) (HPC) 97 % of control

O=C(COc1ccc(Cl)cc1)NCCc1ccccc1
inactive: [8] 97 % of control | [9] 92 % of control | [10] 98 % of control

CCCCN1C(=O)C2CCC34C5C(=O)N(CCCC)C(=O)C5C5C=CC3(C2C1=O)C1C(=O)N(CCCC)C(=O)C1N54 (stereo unspecified)
inactive: dose: 50.0 mg/kg/injection, schedule: Q01DX009 (ip), vehicle: Klucel (hydroxypropylcellulose) (HPC) 99 % of control | [8] 99 % of control | [9] 97 % of control | [10] 97 % of control

Nc1cc(N)nc(C(F)(F)F)n1
inactive: dose: 50.0 mg/kg/injection, schedule: Q01DX Z (ip), vehicle: methylcellulose (MC) 102 % of control | dose: 100.0 mg/kg/injection, schedule: Q01DX Z (ip), vehicle: methylcellulose (MC) 94 % of control

O=C1Cc2c(Cl)cccc2C(=S)N1
inactive: dose: 100.0 mg/kg/injection, schedule: Q01DX009 (ip), vehicle: saline sonified 95 % of control | [11] 95 % of control | dose: 200.0 mg/kg/injection, schedule: Q01DX009 (ip), vehicle: saline sonified 91 % of control | [12] 93 % of control | dose: 400.0 mg/kg/injection, schedule: Q01DX009 (ip), vehicle: saline sonified 98 % of control | [13] 92 % of control

NC(N)=N/N=C(/c1ccccc1)c1ccccc1F
inactive: [14] 111 % of control | [15] 100 % of control | [16] 108 % of control | [17] 103 % of control | dose: 120.0 mg/kg/injection, schedule: Q01DX Z (oral), vehicle: saline 105 % of control | [18] 95 % of control | dose: 240.0 mg/kg/injection, schedule: Q01DX Z (oral), vehicle: saline 105 % of control | [19] 96 % of control | dose: 480.0 mg/kg/injection, schedule: Q01DX Z (oral), vehicle: saline 105 % of control

O=C(O)O.[Co].[NH-]CCN(CC[NH-])CC[NH-]
inactive: [7] 105 % of control | [1] 94 % of control | [2] 111 % of control | [3] 100 % of control

COc1c(NC(=O)c2ccc(C(=O)Nc3cccc([N+](=O)[O-])c3OC)cc2)cccc1[N+](=O)[O-]
inactive: [8] 97 % of control | [9] 100 % of control | [10] 97 % of control

O=Cc1[nH]c(=S)[nH]c(=O)c1Cc1ccc([N+](=O)[O-])cc1
inactive: [11] 93 % of control | [12] 92 % of control | [13] 100 % of control

CCc1[nH]c(=O)nc2[nH]c3ccccc3c12
inactive: dose: 100.0 mg/kg/injection, schedule: Q04DX002 (ip), vehicle: Klucel (hydroxypropylcellulose) (HPC) 90 % of control | dose: 200.0 mg/kg/injection, schedule: Q04DX002 (ip), vehicle: Klucel (hydroxypropylcellulose) (HPC) 93 % of control | dose: 400.0 mg/kg/injection, schedule: Q04DX002 (ip), vehicle: Klucel (hydroxypropylcellulose) (HPC) 97 % of control

C/C=C1/C[C@@H](C)[C@@](C)(O)C(=O)OCC2=CC[N+]3([O-])CC[C@@H](OC1=O)[C@@H]23 (stereo partly specified)
inactive: dose: 20.0 mg/kg/injection, schedule: Q01DX015 (ip), vehicle: saline 98 % of control | dose: 30.0 mg/kg/injection, schedule: Q01DX015 (ip), vehicle: saline 96 % of control | dose: 40.0 mg/kg/injection, schedule: Q01DX015 (ip), vehicle: saline 102 % of control

CN(C)Cc1ccc(C(C)(C)C)cc1
inactive: dose: 25.0 mg/kg/injection, schedule: Q01DX009 (ip), vehicle: water 97 % of control | dose: 50.0 mg/kg/injection, schedule: Q01DX009 (ip), vehicle: water 105 % of control | dose: 100.0 mg/kg/injection, schedule: Q01DX009 (ip), vehicle: water 95 % of control

COc1ccc(N2C(=O)C3C4c5ccccc5C(C3C2=O)[n+]2ccccc24)cc1 (stereo unspecified)
inactive: dose: 100.0 mg/kg/injection, schedule: Q04DX003 (ip), vehicle: saline 97 % of control | dose: 200.0 mg/kg/injection, schedule: Q04DX003 (ip), vehicle: saline 103 % of control

CC1=C(C(=O)O)C(c2ccccc2)CC(=O)N1 (stereo unspecified)
inactive: dose: 50.0 mg/kg/injection, schedule: Q01DX001 (ip), vehicle: carboxymethylcellulose (CMC) 96 % of control | dose: 100.0 mg/kg/injection, schedule: Q01DX001 (ip), vehicle: carboxymethylcellulose (CMC) 104 % of control | dose: 200.0 mg/kg/injection, schedule: Q01DX001 (ip), vehicle: carboxymethylcellulose (CMC) 98 % of control | dose: 400.0 mg/kg/injection, schedule: Q01DX001 (ip), vehicle: carboxymethylcellulose (CMC) 98 % of control

[N-]=[N+]=C1C(c2ccccc2)=NC(c2nccc3ccccc23)=C1[N+](=O)[O-]
inactive: dose: 5.0 mg/kg/injection, schedule: Q01DX001 (ip), vehicle: saline 113 % of control | dose: 10.0 mg/kg/injection, schedule: Q01DX001 (ip), vehicle: saline 102 % of control | dose: 20.0 mg/kg/injection, schedule: Q01DX001 (ip), vehicle: saline 110 % of control

Cc1c(Cl)cccc1NC(=O)Oc1ccc(F)cc1Cl
inactive: [8] 94 % of control | [9] 95 % of control

NCCc1nc2ccccc2[nH]1
inactive: [14] 93 % of control | [15] 98 % of control | [16] 97 % of control | [17] 95 % of control | [18] 103 % of control | [19] 108 % of control
